According to publication PMC8448092, “Inhibitory Compounds Targeting Plasmodium falciparum Gyrase B” (Antimicrobial Agents and Chemotherapy, 2021):
Where two headings read alike, the source gives them in different places.

Columns and labels:
[1] = test system: P. falciparum 3D7; settings: growth in vitro; ref [25], [33]; cited from earlier work
[2] = molecular target: T1, EcA2PfB2 (Plasmodium falciparum, UniProt Q8I528); test: biochemical; format: biochemical, Plasmodium falciparum GyrB with Escherichia coli GyrA; settings: for Sensitivity of hybrid complex to known bacterial gyrase inhibitors: supercoiling, Fig. S1D and E
Experimental: (§1) A supercoiling assay was utilized to test a library of compounds previously selected for binding to EcA2PfB2 but not EcGyr. The library was a kind gift from Yasumitsu Kondoh, RIKEN. The EcGyr complex was used as a control allowing selection for specific compounds that target PfB. Supercoiling assays were carried out in a buffer consisting of 35 mM Tris-HCl (pH 7.5), 24 mM KCl, 4 mM MgCl2, 2 mM DTT, 1.8 mM spermidine, 1 mM ATP, 6.5% (wt/vol) glycerol, and 0.1 mg/ml bovine serum albumin (BSA). The hybrid (EcA2PfB2) complex or EcGyr complex was formed in the storage buffer (50 mM Tris-HCl [pH 7.5], 100 mM KCl, 10% [wt/vol] glycerol, 1 mM EDTA, 2 mM DTT). In a 30-μl reaction, the gyrase complex and 0.5 μg of pBR322 relaxed DNA (Inspiralis, United Kingdom) were assembled on ice and incubated at 37°C for 30 min. The reaction was then stopped by adding an equal volume of stop solution (40% sucrose, 100 mM Tris-HCl [pH 7.5], 1 mM EDTA, 0.5 mg/ml bromophenol blue) and extracted by mixing with 30 μl chloroform-isoamyl alcohol (24:1). The samples were centrifuged at 14,000 × g for 1 min, and the aqueous phase was collected and loaded onto a 1% 1× Tris-acetate-EDTA (TAE) agarose gel. The DNA products were resolved by electrophoresis at 80 V for 120 min and visualized by UV irradiation. The images were then analyzed using ImageJ v.1.47 to obtain the intensity of the supercoiled DNA band. Gyrase with 1% dimethyl sulfoxide (DMSO) was used as the control. The percentage of supercoiled DNA (% SC) was normalized using samples with gyrase in the absence of inhibitor as the full supercoiling control and was plotted against PPG concentration. Data were fitted to the equation % SC = ae^b^[PPG], where a and b are function parameters, using OriginLab Origin (Pro) v.2020b.

[3] = molecular target: T2, EcGyr (Escherichia coli, UniProt P0AES4+P0AES6); test: DNA supercoiling assay, E. coli gyrase; format: biochemical; settings: relaxed pBR322, 37°C 30 min, 1% DMSO, n = 3; read-out: IC50 supercoiling inhibitory activity, EcGyr
T2 construct: made in house
Experimental: as §1, with “Gyrase with 1% dimethyl sulfoxide (DMSO) was used as the control. The percentage of supercoiled DNA (% SC) was normalized using samples with gyrase in the absence of inhibitor as the full supercoiling control and was plotted against PPG concentration. Data were fitted to the equation % SC = ae^b^[PPG], where a and b are function parameters, using OriginLab Origin (Pro) v.2020b.” left out

[4] = molecular target: T2, EcGyr; test: ATP hydrolysis assay (malachite green), EcGyr; format: biochemical; settings: 100 nM EcGyr
Experimental: (§2) The ATP hydrolysis reaction was performed as follows. Enzyme was incubated in the assay buffer (50 mM Tris-HCl [pH 7.5], 125 mM KCl, 1 mM EDTA, 5 mM MgCl2, 5 mM DTT, 10% glycerol) with test compounds at various concentrations, 1 mM ATP, and 10.5 nM linear pBR322 DNA for 30 min at room temperature. The protein concentrations used in the assay were as follows: 1 μM PfB, 0.5 μM EcA2PfB2, and 100 nM EcGyr. A malachite green assay kit (Sigma-Aldrich) was used to measure the released phosphate in the reaction. In brief, malachite green reagent was added to the reaction mixture, and the mixture was further incubated for 10 min. The formed color was measured at 620 nm using a plate reader (SpectraMAX190; Molecular Devices). The amount of released phosphate was calculated based on a calibration curve covering a linear range of 50 to 250 pmol using eight concentrations, which was prepared for each measurement independently. Experiments were carried out in triplicate.

[5] = molecular target: T3, EcB (Escherichia coli, UniProt P0AES6); test: Microscale thermophoresis binding to EcB; settings: 1:1 binding model, 100 nM labeled protein, 5% DMSO, room temperature; read-out: Kd for EcB (MST)
T3 construct: made in house
Experimental: (§3) Microscale thermophoresis (MST) experiments were performed using a Monolith NT.115 instrument (NanoTemper). Proteins (PfB and EcB) were labeled with Red 2nd Generation labeling kits (NanoTemper) in which the fluorescent red dye was coupled with protein via NHS coupling. Labeled protein (100 nM) was mixed with PPG (Activate Scientific, dissolved in DMSO to a final concentration of 5%) and in MST buffer {240 mM NaPi (pH 7.4), 274 mM NaCl, 54 mM KCl, 100 μM TCEP [Tris(2-carboxyethyl)phosphine hydrochloride], 0.05% Tween 20, 5% DMSO} and incubated in the dark for 15 min. The samples were applied onto capillaries (Monolith NT.115 MST Premium coated capillaries), and the fluorescence signal was measured using MO.Control software (Nanotemper). Initial fluorescence signal was used for binding analysis, and Kd was calculated using 1:1 binding model. Results were baseline corrected and normalized for amplitude using MO.Control software (Nanotemper). The Kd values were calculated based on three independent measurements. All experiments were performed at room temperature.

[6] = molecular target: T4, PfB (Plasmodium falciparum, UniProt Q8I528); test: Microscale thermophoresis binding to PfB
Experimental: as §3

[7] = molecular target: T1, EcA2PfB2; test: EMSA DNA binding, hybrid gyrase; design: species or system Plasmodium falciparum GyrB with Escherichia coli GyrA; settings: 147 bp DNA, 200 nM complex
Experimental: (§4) DNA binding assays were carried out using electrophoretic mobility shift assay (EMSA) with 147 bp dsDNA (based on the preferred gyrase cleavage site from plasmid pBR322) ([31]). In brief, 20 nM DNA was mixed with 200 nM reconstituted complex (hybrid or EcGyr) or 1 μM PfB in an assay buffer (30 mM Tris-HCl [pH 7.5], 75 mM KCl, 2 mM MgCl2, 6% glycerol, 1 mM DTT) and PPG for 1 h at room temperature. The samples were resolved in a 5% polyacrylamide gel in TBM buffer (90 mM Tris-borate, pH 7.5, 4 mM MgCl2) for 1 h at 80 V. The gel was stained with SYBR gold (Thermo) and visualized under UV light.

[8] = molecular target: T1, EcA2PfB2; test: ATP hydrolysis assay (malachite green), hybrid gyrase; format: biochemical, Plasmodium falciparum GyrB with Escherichia coli GyrA
Experimental: as §2, with “Enzyme was incubated in the assay buffer (50 mM Tris-HCl [pH 7.5], 125 mM KCl, 1 mM EDTA, 5 mM MgCl2, 5 mM DTT, 10% glycerol) with test compounds at various concentrations, 1 mM ATP, and 10.5 nM linear pBR322 DNA for 30 min at room temperature.” left out

[9] = molecular target: T1, EcA2PfB2; test: DNA cleavage assay; format: biochemical, Plasmodium falciparum GyrB with Escherichia coli GyrA; settings: 150 nM EcA2PfB2, supercoiled DNA, no ATP
Experimental: 22 The purified proteins (2 µg) were subjected to a 10% SDS PAGE and resolved by
23 electrophoresis at 180 V for 40 minutes. The protein bands were visualized by Coommassie
26 The DNA cleavage assay was performed in the same buffer conditions as for
27 supercoiling but ATP was omitted and supercoiled DNA was used instead of relaxed DNA.
28 EcA2PfB2 complex (150 nM) was incubated with 0.5 µg of supercoiled DNA in the
29 absence/presence of inhibitors for 60 min at 37 °C. In order to monitor the production of
30 linearized DNA, protein was removed by addition of 3 µl of 2% SDS and 1 µl of proteinase K
31 (>700 U) followed by further incubation at 37 °C for 30 min. The DNA was then extracted and
32 resolved in gel electrophoresis as described.

[10] = test system: P. falciparum 3D7; test: P. falciparum growth inhibition in vitro (SYBR green); format: cell-based; settings: Plasmodium falciparum, 96 h of treatment
Experimental: Tests on parasites were performed by Anti-infectives Screening Core Services at NYU School of Medicine based on previously published protocol ([44]). P. falciparum strain 3D7 was used for all determinations. Using 96-well plates, 100 μl of P. falciparum growth medium (RPMI 1640, 25 mM HEPES, 0.1 mg/ml gentamicin, 0.05 mg/liter hypoxanthine [pH 6.75]), supplemented with 0.25% sodium bicarbonate and 0.5% Albumax II (Invitrogen), was added to each well. A 10 mM stock of PPG in DMSO was then serially diluted in triplicate. DMSO at the highest concentration used (0.5%) was tested in parallel as a control. Asynchronous P. falciparum in a 100-μl volume was then added to each well at 0.25% late-stage parasitemia with 5% hematocrit, as well as controls (medium, red blood cells, P. falciparum, or P. falciparum with 2 μM chloroquine). The plates were placed in a sealed chamber and maintained under atmospheric conditions of 5% oxygen, 5% carbon dioxide, and 90% nitrogen at 37°C for 96 h. To determine the cell viability, a SYBR green assay for rapid assessment was performed.
After incubation, plates were placed at −80°C for 24 h. The plates were then thawed at 37°C for 4 h. Once thawed, 100 μl of from each resuspended well was transferred into a black, 96-well plate. […] Plates were analyzed on a fluorescence plate reader (Victor) at excitation and emission wavelengths of 485 and 530 nm, respectively. […]

[11] = molecular target: T4, PfB; test: ATP hydrolysis assay (malachite green), PfB; format: biochemical; settings: 1 μM PfB
Experimental: as §2

[12] = molecular target: T4, PfB; test: EMSA DNA binding, PfB; settings: 147 bp DNA, 1 μM PfB
Experimental: as §4

[13] = molecular target: T2, EcGyr; test: EMSA DNA binding, EcGyr; settings: 147 bp DNA, 200 nM complex
Experimental: as §4

O=C(O)c1cn(C2CC2)c2cc(N3CCNCC3)c(F)cc2c1=O [CIP, ciprofloxacin, reference compound]
IC50 [1]: 3 ± 0.5 µM | Sensitivity of hybrid complex to known bacterial gyrase inhibitors [2]: sensitive

O=C1c2ccccc2C(=O)c2c1cc(S(=O)(=O)O)c(O)c2O [ARS, 1,2-dihydroxy-3-(oxysulfonyl)-9,10-anthracenedione]
IC50 [3]: > 100 µM | IC50 [2]: 55.6 ± 6.74 µM

O=c1c(O)cccc2cc(O)c(O)c(O)c12 [PPG, 3,9,10,11-tetrahydroxybicyclo[5.4.0]undeca-1(7),3,5,8,10-pentaen-2-one]
Effect on intrinsic and enhanced ATP hydrolysis by EcB in complex with EcA [4]: little affected | IC50 [3]: > 1000 µM | Kd [5]: ~4.54 µM | Kd [6]: ~1.03 µM | PPG concentration at which the DNA-EcA2PfB2 complex was disrupted [7]: 10 µM | Effect on ATPase activity of EcA2PfB2 in the absence of DNA ([8]; 0.5 μM EcA2PfB2): decreased the ATPase activity in both the absence and presence of DNA | Effect on DNA-induced ATPase activity of EcA2PfB2 ([8]; 0.5 μM EcA2PfB2, with DNA): inhibited the DNA-induced ATPase activity of EcA2PfB2, although this was more modest | IC50 [2]: 9.56 ± 1.94 µM | Linear DNA formation (cleavage complex stabilization) [9]: did not observe any linear DNA formation | IC50 [10]: 92 ± 16 µM | Effect on DNA-enhanced ATP hydrolysis of PfB ([11]; 10.5 nM linear pBR322 DNA, 1 mM ATP): decreased this DNA-enhanced ATP hydrolysis of PfB in a dose-dependent manner | Effect on intrinsic ATPase activity of PfB ([11]; no DNA): remained unchanged | PPG concentration at which formation of the DNA-PfB complex was inhibited [12]: approximately 20 μM | Effect on DNA-EcGyr complex [13]: remained intact

CO[C@@H]1[C@@H](OC(N)=O)[C@@H](O)[C@H](Oc2ccc3c(O)c(NC(=O)c4ccc(O)c(CC=C(C)C)c4)c(=O)oc3c2C)OC1(C)C [Novobiocin, reference compound]
Sensitivity of hybrid complex to known bacterial gyrase inhibitors [2]: sensitive
